Key:
[1] = target: T1, Human glucocorticoid receptors (Homo sapiens, UniProt P04150); test: Radioligand filter binding assay, displacement of 3[H]-dexamethasone from hGR; conditions: read-out: GR Binding (% Inhibition at 1.7 μM)
T1 construct: made in house; host or cells: Sf9 insect cells, recombinant baculovirus (BAC-TO-BAC)
T1 sequence (P04150 1-777): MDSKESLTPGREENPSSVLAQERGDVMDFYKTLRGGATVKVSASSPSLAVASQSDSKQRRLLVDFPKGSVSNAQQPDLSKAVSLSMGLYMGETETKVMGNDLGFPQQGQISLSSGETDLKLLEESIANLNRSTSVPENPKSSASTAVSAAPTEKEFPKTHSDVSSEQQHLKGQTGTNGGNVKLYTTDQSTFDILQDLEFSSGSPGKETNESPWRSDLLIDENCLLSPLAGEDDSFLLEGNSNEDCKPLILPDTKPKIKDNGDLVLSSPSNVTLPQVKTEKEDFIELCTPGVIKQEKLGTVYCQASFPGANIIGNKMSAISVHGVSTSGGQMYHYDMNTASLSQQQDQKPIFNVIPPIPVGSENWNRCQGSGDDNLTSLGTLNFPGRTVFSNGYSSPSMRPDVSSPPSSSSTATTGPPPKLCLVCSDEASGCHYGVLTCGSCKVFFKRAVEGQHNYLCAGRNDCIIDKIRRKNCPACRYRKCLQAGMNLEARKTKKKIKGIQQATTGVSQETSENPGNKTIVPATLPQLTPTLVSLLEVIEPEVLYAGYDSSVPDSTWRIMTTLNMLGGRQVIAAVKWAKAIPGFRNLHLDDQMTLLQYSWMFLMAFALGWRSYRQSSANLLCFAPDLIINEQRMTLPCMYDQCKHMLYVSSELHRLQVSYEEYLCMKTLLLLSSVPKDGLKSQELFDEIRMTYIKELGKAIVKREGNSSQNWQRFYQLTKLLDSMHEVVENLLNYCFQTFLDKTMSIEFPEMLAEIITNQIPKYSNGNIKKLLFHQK
How it was run: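 Recombinant hGR extract from baculovirus-infected Sf9 cells (final ~1 nM receptor) incubated with ³H-dexamethasone and test compound dilutions in duplicate, EDTA/phosphate pH 8 buffer with MTG, overnight (15-20 h) at +4° C. Bound label collected on PEI-treated GF/B filters and scintillation-counted; IC50 from four-parameter fit of corrected cpm.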

[2] = target: T2, progesterone receptor (PR) (Homo sapiens, UniProt P06401); test: Radioligand binding assay for progesterone receptor (similar protocol);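 note: radioligand binding measured with cytosol preparations containing the human progesterone receptor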
T2 sequence (P06401 1-933): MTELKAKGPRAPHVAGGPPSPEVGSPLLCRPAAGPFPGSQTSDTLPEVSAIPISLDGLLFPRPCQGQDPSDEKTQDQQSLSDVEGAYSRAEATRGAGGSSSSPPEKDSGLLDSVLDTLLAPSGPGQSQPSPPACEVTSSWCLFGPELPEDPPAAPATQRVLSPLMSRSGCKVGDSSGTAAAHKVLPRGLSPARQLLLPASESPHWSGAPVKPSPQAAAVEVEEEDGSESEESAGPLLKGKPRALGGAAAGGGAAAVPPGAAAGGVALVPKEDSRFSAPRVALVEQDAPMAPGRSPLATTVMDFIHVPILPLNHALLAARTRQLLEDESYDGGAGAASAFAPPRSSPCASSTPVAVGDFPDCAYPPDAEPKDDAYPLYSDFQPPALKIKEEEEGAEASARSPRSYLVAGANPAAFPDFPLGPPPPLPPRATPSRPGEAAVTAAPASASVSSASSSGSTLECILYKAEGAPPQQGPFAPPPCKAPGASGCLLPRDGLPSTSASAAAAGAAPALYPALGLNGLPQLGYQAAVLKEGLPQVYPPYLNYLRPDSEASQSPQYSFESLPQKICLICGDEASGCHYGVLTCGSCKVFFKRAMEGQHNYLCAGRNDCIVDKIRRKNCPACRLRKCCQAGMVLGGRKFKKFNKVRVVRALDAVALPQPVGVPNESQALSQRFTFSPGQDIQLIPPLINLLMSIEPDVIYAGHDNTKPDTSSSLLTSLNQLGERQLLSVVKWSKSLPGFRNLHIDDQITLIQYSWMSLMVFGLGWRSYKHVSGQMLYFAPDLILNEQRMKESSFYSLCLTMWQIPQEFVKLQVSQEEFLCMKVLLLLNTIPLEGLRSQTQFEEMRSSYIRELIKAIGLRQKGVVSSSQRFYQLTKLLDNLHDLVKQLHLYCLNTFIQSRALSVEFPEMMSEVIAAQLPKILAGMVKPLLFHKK
Text: Methods for Radiolipand Binding Studies with Human Glucocorticoid and Progesterone Receptor Cytosol

[3] = test system: obese diabetic db/db transgenic mice; conditions: Friedman et al. 1997; cited from earlier work

Row | Structure (SMILES) | inhibition at 1.7 µM [1] [%] | IC50 [2] [nM] | reduction of plasma glucose levels [3] [%]
1 | Cc1c(NS(C)(=O)=O)cccc1N(Cc1ccccc1)Cc1ccc(Oc2ccc(CCC(=O)NCCCC(=O)O)cc2)cc1 [Example 106, 4-{[3-(4-{4-[(benzyl{2-methyl-3-[(methylsulfonyl)amino]phenyl}amino)methyl]phenoxy}phenyl)propanoyl]amino}butanoic acid] | 96 | 1290 | 
2 | Cc1c(NS(C)(=O)=O)cccc1N(Cc1ccccc1)Cc1ccc(Oc2cccc(OC(C)C(=O)O)c2)cc1 (stereo not drawn) [Example 111, 2-(3-{4-[(benzyl{2-methyl-3-[(methylsulfonyl)amino]phenyl}amino)methyl]phenoxy}phenoxy)propanoic acid] | 95.3 | 773 | 
3 | Cc1c(NS(C)(=O)=O)cccc1N(Cc1ccccc1)Cc1ccc(Oc2cccc(OCC(=O)NCCCN3CCCC3=O)c2)cc1 [Example 114, 2-(3-{4-[(benzyl{2-methyl-3-[(methylsulfonyl)amino]phenyl}amino)methyl]phenoxy}phenoxy)-N-[3-(2-oxopyrrolidin-1-yl)propyl]acetamide] | 96.7 | 1370 | 
4 | COc1ccc(Oc2ccc(CN(Cc3ccc(F)cc3F)c3cccc(NS(C)(=O)=O)c3C)cc2)cc1OC [Example 141, N-(3-{(2,4-difluorobenzyl)[4-(3,4-dimethoxyphenoxy)benzyl]amino}-2-methylphenyl)methanesulfonamide] | 85.4 | 8050 | 
5 | CC#CCCOc1ccc(CN(Cc2ccc(F)cc2F)c2cccc(NS(C)(=O)=O)c2C)cc1 [Example 143, N-(3-{(2,4-difluorobenzyl)[4-(pent-3-ynyloxy)benzyl]amino}-2-methylphenyl)methanesulfonamide] | 89.3 | > 10000 | 
6 | Cc1c(NS(C)(=O)=O)cccc1N(Cc1ccccc1)Cc1ccc(Oc2ccc(CCC(=O)NCCN3CCOCC3)cc2)cc1 [Example 147, 3-(4-{4-[(benzyl{2-methyl-3-[(metbylsulfonyl)amino]phenyl}amino)methyl]phenoxy}phenyl)-N-(2-morpholin-4-ylethyl)propanamide] | 93.5 | 1330 | 
7 | Cc1c(NS(C)(=O)=O)cccc1N(Cc1ccccc1)Cc1ccc(Oc2ccc(CCC(=O)NCCCCCO)cc2)cc1 [Example 149, 3-(4-{4-[(benzyl{2-methyl-3-[(methylsulfonyl)amino]phenyl}amino)methyl]phenoxy}phenyl)-N-(5-hydroxypentyl)propanamide] | 94.7 | 4290 | 
8 | Cc1c(NS(C)(=O)=O)cccc1N(Cc1ccccc1)Cc1ccc(Oc2ccc(CCC(=O)NCCCCO)cc2)cc1 [Example 150, 3-(4-{4-[(benzyl{2-methyl-3-[(methylsulfonyl)amino]phenyl}amino)methyl]phenoxy}phenyl)-N-(4-hydroxybutyl)propanamide] | 94.3 | 2550 | 
9 | Cc1c(NS(C)(=O)=O)cccc1N(Cc1ccccc1)Cc1ccc(Oc2ccc(CCC(=O)NCCCO)cc2)cc1 [Example 151, 3-(4-{4-[(benzyl{2-methyl-3-[(methylsulfonyl)amino]phenyl}amino)methyl]phenoxy}phenyl)-N-(3-hydroxypropyl)propanamide] | 94.3 | 551 | 
10 | Cc1c(NS(C)(=O)=O)cccc1N(Cc1ccccc1)Cc1ccc(Oc2ccc(CCC(=O)NCCO)cc2)cc1 [Example 152, 3-(4-{4-[(benzyl{2-methyl-3-[(methylsulfonyl)amino]phenyl}amino)methyl]phenoxy}phenyl)-N-(2-hydroxyethyl)propanamide] | 94.3 | 896 | 
11 | Cc1c(NS(C)(=O)=O)cccc1N(Cc1ccc(OCc2ccoc2)cc1)Cc1ccc(F)cc1F [Example 154, N-(3-{(2,4-difluorobenzyl)[4-(3-furylmethoxy)benzyl]amino}-2-methylphenyl)methanesulfonamide] | 92.3 | 921 | 
12 | Cc1c(NS(C)(=O)=O)cccc1N(Cc1ccc(OCc2ccco2)cc1)Cc1ccc(F)cc1F [Example 155, N-(3-{(2,4-difluorobenzyl)[4-(2-furylmethoxy)benzyl]amino}-2-methylphenyl)methanesulfonamide] | 92.8 | 499 | 
13 | CC#C[C@]1(O)CC[C@H]2[C@@H]3CCC4=CC(=O)CCC4=C3[C@@H](c3ccc(N(C)C)cc3)C[C@@]21C [Mifepristone] |  |  | 50

More lines, main results first:

Row | inhibition at 1.7 µM [1] [%] | IC50 [2] [nM] | Structure (SMILES) | reduction of plasma glucose levels [3] [%]
14 | 96.5 | 214 | Cc1c(NS(C)(=O)=O)cccc1N(Cc1ccc(Oc2cccc(OCC(=O)O)c2)cc1)Cc1ccc(F)cc1F [Example 110, (3-{4-[((2,4-difluorobenzyl){2-methyl-3-[(methylsulfonyl)amino]phenyl}amino)methyl]phenoxy}phenoxy)acetic acid] | 
15 | 91.7 | 255 | Cc1c(NS(C)(=O)=O)cccc1N(Cc1ccccc1)Cc1ccc(Oc2ccc(CCC(=O)NCCCCCCO)cc2)cc1 [Example 153, 3-(4-{4-[(benzyl{2-methyl-3-[(methlsulfonyl)amino]phenyl}amino)methyl]phenoxy}phenyl)-N-(6-hydroxyhexyl)propanamide] | 
16 | 98.5 | 360 | Cc1c(NS(C)(=O)=O)cccc1N(Cc1ccc(Oc2ccc(Cl)c(O)c2)cc1)Cc1ccc(F)cc1F [Example 322, N-(3-((4-(4-chloro-3-hydroxyphenoxy)benzyl)(2,4-difluorobenzyl)amino)-2-methylphenyl)methanesulfonamide] | 
17 | 98.2 | 66.6 | Cc1c(NS(C)(=O)=O)cccc1N(Cc1ccc(Oc2ccc(Br)c(OCC(=O)O)c2)cc1)Cc1ccc(F)cc1F [Example 323, (2-bromo-5-(4-(((2,4-difluorobenzyl)(2-methyl-3-((methylsulfonyl)amino)phenyl)amino)methyl)phenoxy)phenoxy)acetic acid] | 
18 | 97.4 | 123 | Cc1c(NS(C)(=O)=O)cccc1N(Cc1ccc(Oc2cccc(OCCCC(=O)NCCC(=O)O)c2)cc1)Cc1ccc(F)cc1F [Example 324, N-(4-(3-(4-(((2,4-difluorobenzyl)(2-methyl-3-((methylsulfonyl)amino)phenyl)amino)methyl)phenoxy)phenoxy)butanoyl)-beta-alanine] | 
19 | 97.7 | 122 | Cc1c(NS(C)(=O)=O)cccc1N(Cc1ccc(Oc2cccc(OCCCC(=O)NCCCC(=O)O)c2)cc1)Cc1ccc(F)cc1F [Example 325, 4-((4-(3-(4-(((2,4-difluorobenzyl)(2-methyl-3-((methylsulfonyl)amino)phenyl)amino)methyl)phenoxy)phenoxy)butanoyl)amino)butanoic acid] | 
20 | 97 | 183 | Cc1c(NS(C)(=O)=O)cccc1N(Cc1ccc(Oc2cccc(OCCCC(=O)N(C)CC(=O)O)c2)cc1)Cc1ccc(F)cc1F [Example 326, N-(4-(3-(4-(((2,4-difluorobenzyl)(2-methyl-3-((methylsulfonyl)amino)phenyl)amino)methyl)phenoxy)phenoxy)butanoyl)-N-methylglycine] | 

From US6583180B2, “Glucocorticoid receptor modulators” (Abbott Laboratories, priority 2001, dated 2003)
